Reference: patent US11191773B2, “Methods of treatment for bacterial infections” (President and Fellows of Harvard College, priority 2017, dated 2021)
Converted amounts (≈) assume the structure as drawn.

What was measured:
[1] = target: T1, wild-type LptB2FGC complexes (Escherichia coli, UniProt P0A9V1); test: LPS-release assay, right-side-out vesicles to LptA*; type: biochemical, E. coli; details: overexpressed LptB2FGC vesicles, 30° C. for 1 hour (FIG. 9D, 9E)
T1 construct: made in house; host or cells: right-side-out membrane vesicles from E. coli BL-21(λDE3) overexpressing the complex
T1 sequence (P0AF98 whole entry): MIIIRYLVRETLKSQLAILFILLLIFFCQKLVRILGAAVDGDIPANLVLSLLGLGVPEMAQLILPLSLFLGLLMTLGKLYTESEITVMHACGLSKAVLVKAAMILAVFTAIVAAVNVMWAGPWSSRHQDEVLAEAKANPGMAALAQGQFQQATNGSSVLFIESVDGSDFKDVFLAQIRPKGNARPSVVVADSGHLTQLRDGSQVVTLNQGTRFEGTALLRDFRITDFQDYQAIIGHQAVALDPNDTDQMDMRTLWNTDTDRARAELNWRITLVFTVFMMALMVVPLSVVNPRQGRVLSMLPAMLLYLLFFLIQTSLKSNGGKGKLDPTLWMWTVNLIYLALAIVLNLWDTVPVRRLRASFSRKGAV
T1 sequence (P0ADV9 whole entry, further chain): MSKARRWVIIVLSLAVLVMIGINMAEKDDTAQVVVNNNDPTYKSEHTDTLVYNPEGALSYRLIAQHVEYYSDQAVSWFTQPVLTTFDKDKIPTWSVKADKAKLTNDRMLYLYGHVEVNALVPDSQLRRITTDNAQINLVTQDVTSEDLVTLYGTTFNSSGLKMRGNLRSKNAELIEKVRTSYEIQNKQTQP
T1 sequence (P0ADC6 whole entry, further chain): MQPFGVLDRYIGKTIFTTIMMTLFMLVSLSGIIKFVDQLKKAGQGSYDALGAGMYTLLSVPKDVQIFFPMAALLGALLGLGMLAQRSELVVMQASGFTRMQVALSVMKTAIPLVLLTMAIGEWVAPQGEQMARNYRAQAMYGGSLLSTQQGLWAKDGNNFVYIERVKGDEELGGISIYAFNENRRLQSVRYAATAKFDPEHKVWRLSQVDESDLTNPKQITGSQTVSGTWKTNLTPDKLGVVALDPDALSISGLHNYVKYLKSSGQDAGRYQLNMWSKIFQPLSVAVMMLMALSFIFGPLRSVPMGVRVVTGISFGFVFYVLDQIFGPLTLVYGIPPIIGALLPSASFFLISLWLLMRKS
T1 sequence (P0A9V1 2-241): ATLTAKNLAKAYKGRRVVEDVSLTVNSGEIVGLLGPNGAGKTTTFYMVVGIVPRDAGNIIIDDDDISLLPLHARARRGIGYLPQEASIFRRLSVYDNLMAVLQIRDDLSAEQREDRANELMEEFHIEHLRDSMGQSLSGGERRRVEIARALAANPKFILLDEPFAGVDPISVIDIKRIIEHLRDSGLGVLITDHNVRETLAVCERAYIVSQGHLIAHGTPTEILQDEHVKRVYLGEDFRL
Description: (§1) FIG. 9A is a schematic drawing showing the assay to monitor LPS release from right-side-out vesicles to LptA* (LptA(I36pBPA)). Vesicles containing overexpressed wild-type or mutant LptB2FGC complexes were incubated with LptA* and ATP at 30° C. to initiate LPS extraction and transport from the vesicles to LptA*. Samples were taken at different time points and UV-irradiated to crosslink LPS to LptA*, and accumulation of LPS-LptA* adducts was detected using LPS immunoblots.
FIG. 9D is a picture of an immunoblot showing that novobiocin and derivatives with impaired gyrase activities stimulate LPS transport in E. coli in vitro. […] Samples were UV irradiated at 365 nm for 5 minutes and then quenched with 2X SDS/5% β-mercaptoethanol. Samples were immunoblotted.
(§2) The assay detects via immunoblot LPS that becomes crosslinked to LptA* in the presence of UV light. […] By comparison, vesicles containing LptB2LptFG(ch)C complexes released less LPS over time (FIG. 9B, lanes 5-8). These experiments provide direct evidence that the amino acid changes in LptFG(ch), which were known to affect complex formation with LptB, impair LPS release. […] These compounds also increase LPS release from vesicles containing wild-type LptB2FGC complexes or LptB(R91 S)2FGC complexes (FIG. 17).
Samples were UV irradiated at 365 nm for 5 minutes and then quenched with 2X SDS/5% β-mercaptoethanol. Samples were immunoblotted.
The in vitro LPS-transport experiments in FIGS. 9B, 9C, and 17 were set-up as described in (Okuda et al. Science 2012, 338, 1214-1217) with some modifications. RSO-vesicles (50 μg total protein) were diluted into 100 μL reaction buffer (10% v/v glycerol, 20 mM Tris (pH 8.0), 150 mM NaCl, 5 mM sodium-ATP, 5 mM MgCl2), and incubated on ice with novobiocin, 1-adamantyl-novobiocin, or no compound for 15 minutes (50× compound stocks in water were used for each concentration). […]
(§3) Immunoblotting was used to assess LptA*-LPS levels in each sample. […] LptA levels were assessed similarly, using rabbit anti-LptA antiserum followed by donkey anti-rabbit horseradish peroxidase conjugate (GE Amersham). […]

[2] = system: wild-type E. coli; test: Checkerboard microdilution assay between PMB and clorobiocin / novobiocin (FIG. 9F); type: cell-based; details: 37° C. for 24 h
[3] = system: wild type and IptB1; test: Plating assay (FIG. 14); type: cell-based, E. coli
Description: (§4) Efficiency of plating assays were performed on indicated media using the method described in Butler et al., J. Bacteriol. 2013, 195, 4639-4649.

[4] = system: IptFG(ch) mutant; test: Rescue of growth of coupling helix mutant (plating and disk assays); type: cell-based, E. coli
Description: FIG. 8B is a series of pictures of bacterial overnight cultures grown in minimal medium. The cultures were serially diluted ten-fold and spotted onto LB agar plates with and without compounds.
FIG. 15 is a picture of bacterial lawns grown on plates in the presence of disks containing antibiotics. […] Strains were grown overnight in minimal media and then plated on LB plates. Each disk contained 5 μg compound.
The coupling helices in LptFG each contain a strictly-conserved glutamate, and changing both glutamates to alanine (IptFG(ch)) causes a lethal loss of function (FIG. 8B, LB panel). […] Because novobiocin also contacts R91 (FIG. 7C), we speculated that it might rescue growth of IptFG(ch) by masking the charge. […] We conclude that novobiocin suppresses Lpt defects in vivo by interacting with LptB at R91; therefore, novobiocin interacts with LptB in cells in a similar manner to that observed in the crystal structure.
Disk diffusion assays were performed as described in Sherman et al., Proc. Natl. Acad. Sci. USA 2014, 111, 4982-4987. Premade Sensi-Disc (BD-Beckton, Dickinson and Company) were used for bacitracin 10IU, erythromycin 15 μg, novobiocin 30 μg, and rifampin 5 μg.
as §4

[5] = system: ΔtolC; test: Minimum inhibitory concentration assay; type: cell-based, E. coli
Description: (§5) We wondered whether it would be possible to separate novobiocin's ability to suppress the IptFG(ch) defects in vivo from its activity against DNA gyrase, its presumed primary target. […] Minimum inhibitory concentrations were measured after a 15-hr incubation period at 37° C.
(§6) Overnight cultures were prepared by transferring 5 mL of sterile LB Miller media to culture tubes and inoculating with the corresponding organism. The tubes were allowed to shake at 220 rpm, 37° C. overnight. 15 μL of overnight culture was diluted in 15 mL of LB Miller in a Falcon tube and was vortexed to mix. In a 96-well plate, 100 μL of diluted culture was added to each well. To column #1, an additional 100 μL of diluted culture and test compound was added (93.7 μL culture+6.35 μL 10 mg/mL novobiocin) or (94.2 μL culture+5.87 μL 10 mg/mL 1-adamantyl-novobiocin) such that the highest concentration tested was 500 μM. Transferred 100 μL from column #1 into column #2, etc, and mixed each time thoroughly. Repeated serial dilution until column #11. Incubated the plate at 37° C. overnight (˜16 h) and read the turbidity (OD600) using a Spectramax 384 plus plate reader (Molecular Devices).

[6] = system: wild type; test: Minimum inhibitory concentration assay; type: cell-based, E. coli; details: Escherichia coli, 15 h, read-out: Minimum inhibitory concentration
Description: as §5, §6

[7] = system: lptB1; test: Minimum inhibitory concentration assay; type: cell-based, E. coli
Description: as §5, §6

[8] = target: T2, LptB2LptFG(ch)C complexes (Escherichia coli, UniProt P0A9V1); test: LPS-release assay, right-side-out vesicles to LptA*; type: biochemical, E. coli; details: 30° C. (FIG. 9C)
T2 construct: made in house; host or cells: right-side-out membrane vesicles from E. coli BL-21(λDE3) overexpressing the complex
T2 sequence (P0AF98 whole entry E84A): as the sequence (P0AF98 whole entry) above, with E84A counted along it
T2 sequence (P0ADC6 whole entry E88A, further chain): as the sequence (P0ADC6 whole entry, further chain) above, with E88A counted along it
T2 sequence (P0A9V1 2-241): as the sequence (P0A9V1 2-241) above
T2 sequence (P0ADV9 whole entry, further chain): as the sequence (P0ADV9 whole entry, further chain) above
Description: as §1, §2
The in vitro LPS-transport experiments in FIGS. 9B, 9C, and 17 were set-up as described in (Okuda et al. Science 2012, 338, 1214-1217) with some modifications. […]
as §3

[9] = Escherichia coli, 15 h, read-out: Minimum inhibitory concentration

Structure (SMILES) | LPS transport in vitro [1] | synergy with PMB [2] | potency compared to novobiocin [3] | suppression of lethality of IptFG(ch) ([4]; disks on LB plates, each disk 5 μg compound (FIG. 15)) | rescue of growth of IptFG(ch) ([4]; serial dilutions spotted onto LB agar plates with compound (FIG. 8B)) | MIC [5, 9] [µM] | less potent in vivo compared to novobiocin ([5]; efflux pump-deficient ΔtoIC strain) [×] | MIC [6] [µM] | MIC [7, 9] [µM] | less potent in vivo compared to novobiocin ([7]; leaky IptB1 strain) [×] | LPS release from vesicles to LptA* [8]
CO[C@@H]1[C@@H](OC(=O)c2ccc(C)[nH]2)[C@@H](O)[C@H](Oc2ccc3c(O)c(NC(=O)c4ccc(O)c(CC=C(C)C)c4)c(=O)oc3c2Cl)OC1(C)C [clorobiocin] | highly stimulates LPS transport in vitro | more potent synergy with PMB than novobiocin |  |  |  |  |  |  |  |  | 
COC1C(OC(N)=O)C(O)[C@H](Oc2ccc3c(O)c(NC(=O)C45CC6CC(CC(C6)C4)C5)c(=O)oc3c2C)OC1(C)C (stereo partly drawn) [Novobiocin-adamantyl, (3R,4S,5R,6R)-6-((3-((3R,5S)-adamantane-1-carboxamido)-4-hydroxy-8-methyl-2-oxo-2H-chromen-7-yl)oxy)-5-hydroxy-3-methoxy-2,2-dimethyltetrahydro-2H-pyran-4-yl carbamate] |  |  | less potent than novobiocin | suppressed the lethality of IptFG(ch) | completely suppressed the lethality of IptFG(ch) | 125 to 250 (≈ 73.3 to 147 µg/mL) | ~100 | > 500 | 125 (≈ 73.3 µg/mL) | ~100 | stimulate LPS release from the LptB2LptFG(ch)C vesicles in a concentration dependent manner
